The test system of test [1] is Human malignant melanoma cell line G361. The experiment in a line: MTT Cell Proliferation Assay, G361 cells. The conditions noted are these: read-out: IC50 (concentration of agent that inhibits cell growth by 50%).
Method: (§1) Human lung carcinoma cell line A549 plates were seeded with 2,500 cells/well, and the cells were grown in Ham's F12 medium containing 10% FBS and 1% penicillin/strep/glutamine. Cultures were maintained in a 37° C. humidified 5% CO2/95% air atmosphere. Stock cultures were allowed to grow to 70-80% confluence for this study. […] 1000 μl of medium was removed from each well at 72 hours post-treatment and 10 μl MTT reagent was added to each well. The plates were incubated at 37° C. for 4 hours and then 100 μl of detergent was added. The plates were left overnight at room temperature in the dark and was read on a plate reader using SoftMax® Pro (version 5.2, Molecular Devices).
The absorbance data was analyzed as follows: Absorbance values were converted to Percent of Control and plotted against test agent concentrations for IC50 calculations using SoftMax® Pro (version 5.2, Molecular Devices). The plate blank signal average was subtracted from all wells prior to calculating the Percent of Control. Percent of Control values were calculated by dividing the absorbance values for each test well by the No Drug Control average (column 11 values; cells+vehicle control) and multiplying by 100. Plots of Compound Concentration versus Percent of Control were analyzed using the 4-parameter equation to obtain IC50 values and other parameters that describe the sigmoidal dose response curve. […]
Test [2] concerns colorectal adenocarcinoma. The experiment in a line: Human clinical trial (UK), refractory colorectal cancer patient. It is filed as in vivo. The conditions noted are these: person, colorectal adenocarcinoma failed oxaliplatin, capecitibine, cetuximab, irinotecan, panitumumab; 500 mg/m^2 i.v. daily days 1-4 of 21-day cycle, 4 cycles. The source says: The trial enrolled a person with colorectal adenocarcinoma, adenocystic histology, incompletely resected in September 2007. Their initial therapy consisted of oxaliplatin, capecitibine and cetuximab between October 2007 and February 2009 with best response of progressive disease. […] They then were changed to irinotecan and panitumumab, administered between April 2009 and October 2009, again with best response progressive disease.

The test system of test [3] is Human lung carcinoma cell line A549. The experiment in a line: MTT Cell Proliferation Assay, A549 cells. In kind it is cell-based. The conditions noted are these: for IC50: A549 cells, MTT, 72 hours post-treatment; for IC50 Ratio (A549/H1975): ratio of IC50 in A549 to IC50 in H1975.
Method: as §1
The absorbance data was analyzed as follows: Absorbance values were converted to Percent of Control and plotted against test agent concentrations for IC50 calculations using SoftMax® Pro (version 5.2, Molecular Devices). The plate blank signal average was subtracted from all wells prior to calculating the Percent of Control. Percent of Control values were calculated by dividing the absorbance values for each test well by the No Drug Control average (column 11 values; cells+vehicle control) and multiplying by 100. Plots of Compound Concentration versus Percent of Control were analyzed using the 4-parameter equation to obtain IC50 values and other parameters that describe the sigmoidal dose response curve.
The IC50 values for the test agents were estimated by curve-fitting the data using the following four parameter-logistic equation:
wherein “Top” is the maximal % of control absorbance (100%), “Bottom” is the minimal % of control absorbance at the highest agent concentration (down to zero), Y is the Percent of Control absorbance, X is the test agent Concentration, IC50 is the concentration of agent that inhibits cell growth by 50% compared to the control cells, n is the slope of the curve.
The test system of test [4] is human lung carcinoma cell line H1975. The experiment in a line: MTT Cell Proliferation Assay, H1975 cells. In kind it is cell-based. The protocol: (“Test Drug”) was 41 μM (FIG. 1).
Table 2 below summarizes the activities on the two compounds in the different lung cancer cell lines tested.

In test [5] the test system is Non-Small Cell Lung Cancer. Kind of test: Human clinical trial (US), refractory lung cancer patients. In kind it is in vivo. The conditions noted are these: 320 mg/m^2 i.v. day 1, 8, 15 of 28-day cycle, 4 cycles. As to the method:
Patient No. 04-005 was a person with Stage IV Non-Small Cell Lung Cancer, moderately differentiated adenocarcinoma histology, diagnosed in April 2006. […] Combination chemotherapy with docetaxel, carboplatin and bevacizumab was administered between September and December 2006, with which the patient achieved a complete response. The patient suffered a disease recurrence and was started on sorafenib in April 2008. Sorafenib was discontinued in May 2008 due to disease progression. […] Between November 2009 and January 2010, the patient received gemcitibine.
Patient No. 04-011 was a person with Stage IIIB Non-Small Cell Lung Cancer, poorly differentiated adenocarcinoma histology, diagnosed in January 2005. Initial therapy consisted of carboplatin, gemcitibine and zoledronic acid from January 2005 through August 2005, with a partial response. […] In December 2005, chest radiotherapy with 54 Gy, with paclitaxel radiosensitization, was initiated and completed by February 2006. Through the remainder of 2006, the patient received a course of single agent erlotinib and a course of single agent pemetrexed; best response to these therapies is unknown. In January 2007, combination therapy with gemcitibine and navelbine was initiated, but their best response was disease progression. Experimental therapy with PTK787 (vatalanib) and imatinib was initiated in February 2007. […]

In test [6] the test system is human lung carcinoma cell line H1975. The conditions noted are these: T790M mutation in the EGFR gene; Bao et al. 2009; cited from earlier work.
A further test deals with A549 cells. The conditions noted are these: Denlinger et al. 2004; cited from earlier work.

Where two headings read alike, the source gives them in different places.

Turning to `[Cl][Ru-]([Cl])([Cl])[Cl].[Na+].c1ccc2[nH]ncc2c1.c1ccc2[nH]ncc2c1`, the IC50 was 41 µM in test [1] (G361 melanoma cells, MTT, 72 hours post-treatment); 9.9 µM in test [3]; 33.6 µM in test [4] (72 hours post-treatment). Moreover, the best response entry in test [2] was “stable disease”; in test [5] (Patient No. 04-005, Stage IV NSCLC), “stable disease”; in test [5] (Patient No. 04-011, Stage IIIB NSCLC), “stable disease”. Further, the “IC50 Ratio (A549/H1975)” value in test [3] is 0.29.
Consider `CC(=O)O[C@H]1C(=O)[C@@]2(C)[C@H]([C@H](OC(=O)c3ccccc3)[C@]3(O)C[C@H](OC(=O)[C@H](O)[C@@H](NC(=O)c4ccccc4)c4ccccc4)C(C)=C1C3(C)C)[C@]1(OC(C)=O)CO[C@@H]1C[C@@H]2O` [Paclitaxel, paclitaxel], for which the IC50 in test [3] (Homo sapiens) turned out to be 9.92 µM; in test [4] (Homo sapiens, NCI-H1975, 72 hours post-treatment), 0.005 µM. The “IC50 Ratio (A549/H1975)” value in test [3] is listed as 1984.
Consider `C#Cc1cccc(Nc2ncnc3cc(OCCOC)c(OCCOC)cc23)c1` [erlotinib], for which the “sensitivity of H1975 cells” value in test [6] was “resistant”.
For `COc1cc2ncnc(Nc3ccc(F)c(Cl)c3)c2cc1OCCCN1CCOCC1` [gefitinib], the “sensitivity of H1975 cells” value in test [6] is “resistant”.
Regarding `Nc1ccn([C@@H]2O[C@H](CO)[C@@H](O)C2(F)F)c(=O)n1` [gemcitabine], the “sensitivity of A549 cells” value with A549 cells is reported as “inherently resistant”.
`Cn1nnc2c(C(N)=O)ncn2c1=O` [temozolomide]: the IC50 in test [1] (Homo sapiens, G-361, 72 h) turned out to be 199 µM.
